Experimental data taken from patent publication EP4667582A1, “FACTOR XA REAGENT” (Instrumentation Laboratory Company, priority 2024, dated 2025).
Counter-ions that a name gives are not always drawn.

Assays:
Assay type in all cases: biochemical
factor Xa [1] = test: factor Xa chromogenic activity in plasma sample containing dimethylguanidine (9:1 sample to factor Xa ratio); settings: Fig. 7, 50mM compared to 25mM dimethylguanidine, 1.5 mM S-2732, 37°C
Description: In this experiment, 180µL of a plasma sample containing dimethylguanidine (DMG) and 1.5 mM substrate S-2732™ were mixed with 20µL of factor Xa (a 9:1 sample to factor Xa ratio). The activity of factor Xa was determined at 37°C based on chromogenic activity of the substrate. The activity of factor Xa linearly correlates with the factor Xa concentration in the presence of dimethylguanidine. […] Thus, increasing the amount of dimethylguanidine in a sample reduces a rate of the reaction. In some implementations, dimethylguanidine can be added to a reaction at a concentration of up to about 500mM.

factor Xa [2] = test: factor Xa substrate turnover rates at a range of factor Xa levels, 1,1-dimethylguanidine compared to NaCl; settings: Fig. 6; 22mM 1,1-dimethylguanidine compared to 33 mM NaCl; 37°C, 1.5mM S-2732
Description: Guanidine derivatives modulate factor Xa enzymatic activity in a reaction, as explained previously, thereby slowing-down the reaction. As a result, greater amounts and/or concentrations of factor Xa can be used in a reaction when a guanidine derivative is incorporated into the reaction. In this experiment, factor Xa levels were tested in a reaction in triplicate at 37°C as follows: 40µL of factor Xa was incubated for 20s to 60s before 40µL of 100mM 1,1-dimethylguanidine or 150mM NaCl in water was added to the reaction. After an incubation period of 150s to 180s, 100µL of 1.5mM factor Xa chromogenic substrate S-2732™ was added to the reaction and mAbs/min at 405 nm was measured after a 20s delay. In Fig. 6, substrate turnover rates (e.g., coloring of the substrate) in the presence of 22mM 1,1-dimethylguanidine 601 were compared to substrate turnover rates in the presence of 33 mM NaCl 602. As evident from Fig. 6, greater amounts and/or concentrations of factor Xa can be added to the reaction in the presence of 1,1-dimethylguanidine to produce the same substrate turnover rates relative to NaCl. […] Greater amounts and/or concentrations of factor Xa facilitate detection of factor Xa inhibitors or reversal of such inhibitors in an assay, as noted previously.

factor Xa [3] = test: factor Xa chromogenic assay with guanidine derivatives (substrate S-2732, mAbs/min at 405 nm); settings: for factor Xa inhibition: Fig. 4, dilutions in water, 6nkat/mL factor Xa, 20mM HEPES pH 7.5, 1.5 mM S-2732, ranking between compounds; for factor Xa activity: Fig. 3, activity plotted against guanidine derivative or NaCl concentration, 6 nkat/mL factor Xa, 20mM Hepes pH 7.5, 37°C, 1.5mM S-2732
Description: In this experiment, activity of factor Xa in the presence of guanidine sulfate and its derivatives (e.g., 1-methylguanidine sulfate, 1,1-dimethylguanidine sulfate, 1,1-diethylguanidine, N-benzyl, N-methylguanidine sulfate, 1,1,3,3-tetramethylgunidine and 1,1-dimethylbiguanide HCl) was evaluated using a chromogenic assay. In the experiment, each guanidine derivative was dissolved in deionized (DI) water to a final concentration of 100mM. A number of such guanidine dilutions were prepared. Guanidine derivative levels in the solutions were tested in triplicate at 37°C as follows: 40µL (microliters) of each guanidine derivative level was incubated for 20 seconds (s) to 60s before 40µL of 6 nkat/mL factor Xa in 20mM Hepes pH 7.5 buffer was added to the reaction. After an incubation period of 150s to 180s, 100µL of 1.5mM factor Xa chromogenic substrate S-2732™ was added to the reaction and milli-absorbance per minute (mAbs/min) at 405nm (nanometers) was measured after a 20s delay.
In this experiment, the effects of guanidine sulfate and the guanidine derivatives: 1-methylguanidine sulfate, 1,1-dimethylguanidine sulfate, 1,1-diethylguanidine, and N-benzyl, N-methylguanidine sulfate were analyzed using a chromogenic assay. A number of dilutions were prepared in water with guanidine or a guanidine derivative of the type described herein. 40µL of each of the guanidine or guanidine derivatives were mixed for 20s to 60s with 40µL of 6nkat/mL factor Xa diluted in 20mM HEPES, pH 7.5 buffer. After an incubation period of 150s to 180s, 100µL of the factor Xa chromogenic substrate S-2732™ (1.5 mM) was added to each of the guanidine and factor Xa mixtures and each mixture was chromogenically measured at 405nm mAbs/min after a 20s delay.

Compound: CN(C)C(=N)N [1,1-dimethylguanidine]
- rate of the reaction (activity of factor Xa) (factor Xa [1]): slows reaction of the factor Xa in a sample greater than 25mM
- substrate turnover rates (factor Xa [2]): the reaction has been slowed-down

Compound: CCN(CC)C(=N)N.O=S(=O)(O)O [1,1-diethylguanidine sulfate]
- factor Xa inhibition (factor Xa [3]): largest extent of factor Xa inhibition

Compound: CN(C)C(=N)NC(=N)N [1,1-dimethyl-biguanide, reference compound]
- factor Xa activity (factor Xa [3]): modulate factor Xa dose-dependently, although less than 1-methylated guanidine sulfate

Compound: N=C(N)N [guanidine sulfate]
- factor Xa activity (factor Xa [3]): modulate factor Xa dose-dependently, although less than 1-methylated guanidine sulfate
- factor Xa inhibition (factor Xa [3]): least amount of reduction in factor Xa inhibition

Compound: CN(Cc1ccccc1)C(=N)N.O=S(=O)(O)O [N-benzyl N-methylguanidine sulfate]
- factor Xa inhibition (factor Xa [3]): reduced factor Xa inhibition as compared to the factor Xa inhibition of mixtures containing dialkylated guanidine derivatives

Compound: NaCl [reference compound]
- factor Xa activity (factor Xa [3]): activates factor Xa activity

Compound: CN(C)C(=N)N.O=S(=O)(O)O [1,1-dimethylguanidine sulfate]
- factor Xa inhibition (factor Xa [3]): largest extent of factor Xa inhibition

Compound: CNC(=N)N [1-methylguanidine sulfate]
- factor Xa activity (factor Xa [3]): modulates factor Xa dose-dependently
- factor Xa inhibition (factor Xa [3]): reduced factor Xa inhibition as compared to the factor Xa inhibition of mixtures containing dialkylated guanidine derivatives
